Consider 6 compounds from ChEMBL document CHEMBL3045771, “Structure-Activity Relationships of Enantiomers of the Azole Fungicide Ipconazole and Its Related Compounds” (1998).

Common to all, as to format: functional
For test [1], the system named is Colletotrichum gloeosporioides. Description: Antifungal activity against Glomerella cingulata on potato sucrose agar medium at 28 or 20 degC for 2 or 3 days.
A further test deals with Colletotrichum lagenaria. Description: Antifungal activity against Colletotrichum lagenaria on potato sucrose agar medium at 28 or 20 degC for 2 or 3 days.
The next test deals with Alternaria mali. The experiment in a line: Antifungal activity against Alternaria mali on potato sucrose agar medium at 28 or 20 degC for 2 or 3 days.
A further test relates to Fusarium fujikuroi. Description: Antifungal activity against Fusarium fujikuroi on potato sucrose agar medium at 28 or 20 degC for 2 or 3 days.
In the next test the test system is Botrytis cinerea. Description: Antifungal activity against Botryotinia fuckeliana on potato sucrose agar medium at 28 or 20 degC for 2 or 3 days.
The test system of another test is Cercospora beticola. The experiment in a line: Antifungal activity against Cercospora beticola on potato sucrose agar medium at 28 or 20 degC for 2 or 3 days.
Another test deals with Bipolaris oryzae. The experiment in a line: Antifungal activity against Bipolaris oryzae on potato sucrose agar medium at 28 or 20 degC for 2 or 3 days.
The test system of another test is Cucumis sativus. The experiment in a line: Inhibition of Cucumis sativus (cucumber) growth assessed as stem length of first leaf of seedlings measured as growth rate at 125 ug/ml for 24 hr relative to control. On the set-up: scale not given: the % may be the effect or the level left.
The subject of the next test is Monilinia fructicola. Description: Antifungal activity against Monilinia fructicola on potato sucrose agar medium at 28 or 20 degC for 2 or 3 days.
A further test has as its system Rhizoctonia solani. Description: Antifungal activity against Rhizoctonia solani on potato sucrose agar medium at 28 or 20 degC for 2 or 3 days.
A further test relates to Sclerotinia sclerotiorum. The experiment in a line: Antifungal activity against Sclerotinia sclerotiorum on potato sucrose agar medium at 28 or 20 degC for 2 or 3 days.
The test system of another test is Triticum aestivum. Description: Inhibition of Triticum aestivum (wheat) Nourin 64 growth assessed as first leaf sheath length of seedlings measured as growth rate at 125 ug/ml for 24 hr relative to control. More on the design: scale not given: the % may be the effect or the level left.
Another test relates to Pyricularia oryzae. The experiment in a line: Antifungal activity against Magnaporthe oryzae on potato sucrose agar medium at 28 or 20 degC for 2 or 3 days.
Test [2] relates to Fusarium oxysporum f. sp. cucumerinum. The experiment in a line: Antifungal activity against Fusarium oxysporum f. sp. cucumerinum on potato sucrose agar medium at 28 or 20 degC for 2 or 3 days.

Structures are written as SMILES. ≈ marks a conversion by molar mass, not a printed value.

In the case of `CC(C)[C@H]1CC[C@H](Cc2ccc(Cl)cc2)[C@@]1(O)Cn1cncn1`, the MIC (as a rule, the least concentration at which growth counts as inhibited) was 0.4 µg/mL (≈ 1.2 µM) in [1]; under 0.2 µg/mL in the test with Colletotrichum lagenaria; 3.1 µg/mL (≈ 9.29 µM) in the test on Alternaria mali; 0.2 µg/mL (≈ 0.599 µM) with Fusarium fujikuroi; 0.4 µg/mL (≈ 1.2 µM) with Botrytis cinerea; 13 µg/mL (≈ 38.9 µM) in the test on Cercospora beticola. Besides, the MIC against Bipolaris oryzae is 13 µg/mL (≈ 38.9 µM); with Monilinia fructicola it was under 0.2 µg/mL; with Rhizoctonia solani, 100 µg/mL (≈ 300 µM); with Sclerotinia sclerotiorum, 0.8 µg/mL (≈ 2.4 µM); in the test with Pyricularia oryzae, 1.6 µg/mL (≈ 4.79 µM); in [2] it was 0.4 µg/mL (≈ 1.2 µM). The Activity with Cucumis sativus is 113%; in the test with Triticum aestivum, 96%.

In the case of `CC(C)[C@@H]1CC[C@@H](Cc2ccc(Cl)cc2)[C@]1(O)Cn1cncn1`, the MIC was 25 µg/mL (≈ 74.9 µM) in test [1]; 50 µg/mL (≈ 150 µM) against Colletotrichum lagenaria; over 100 µg/mL in the test on Alternaria mali; over 100 µg/mL in the test with Fusarium fujikuroi; 25 µg/mL (≈ 74.9 µM) with Botrytis cinerea; over 100 µg/mL in the test on Cercospora beticola. Further, the MIC against Bipolaris oryzae was 50 µg/mL (≈ 150 µM); with Monilinia fructicola, under 0.2 µg/mL; against Rhizoctonia solani, over 100 µg/mL; in the test with Sclerotinia sclerotiorum, over 100 µg/mL; in the test on Pyricularia oryzae, 13 µg/mL (≈ 38.9 µM); in test [2] it was over 100 µg/mL. Besides, the Activity with Cucumis sativus is given as 104%; in the test with Triticum aestivum it was 92%.

For `CCCC[C@H]1CC[C@@H](Cc2ccc(Cl)cc2)[C@]1(O)Cn1cncn1`, the MIC (in test [1]; against Colletotrichum lagenaria; against Alternaria mali; with Fusarium fujikuroi; in the test on Botrytis cinerea; in the test on Cercospora beticola) was over 100 µg/mL each time. The MIC is over 100 µg/mL against Bipolaris oryzae; 50 µg/mL (≈ 144 µM) against Monilinia fructicola; 100 µg/mL (≈ 287 µM) in the test on Rhizoctonia solani; over 100 µg/mL in the test on Sclerotinia sclerotiorum; 25 µg/mL (≈ 71.9 µM) in the test with Pyricularia oryzae; over 100 µg/mL in test [2]. Moreover, the Activity was 117% in the test on Cucumis sativus and 112% with Triticum aestivum.

Regarding `CCCC[C@@H]1CC[C@H](Cc2ccc(Cl)cc2)[C@@]1(O)Cn1cncn1`, the MIC in test [1] was 6.3 µg/mL (≈ 18.1 µM); with Colletotrichum lagenaria, over 100 µg/mL; in the test on Alternaria mali, over 100 µg/mL; with Fusarium fujikuroi, 3.1 µg/mL (≈ 8.91 µM); in the test with Botrytis cinerea, 3.1 µg/mL (≈ 8.91 µM); in the test with Cercospora beticola, over 100 µg/mL. For the same compound, the MIC in the test with Bipolaris oryzae came to 25 µg/mL (≈ 71.9 µM); against Monilinia fructicola it was 6.3 µg/mL (≈ 18.1 µM); with Rhizoctonia solani, 100 µg/mL (≈ 287 µM); in the test with Sclerotinia sclerotiorum, 3.1 µg/mL (≈ 8.91 µM); in the test with Pyricularia oryzae, 6.3 µg/mL (≈ 18.1 µM); in [2], 50 µg/mL (≈ 144 µM). For the same compound, the Activity in the test with Cucumis sativus stood at 121%; in the test on Triticum aestivum, 98%.

`CC(C)C[C@H]1CC[C@@H](Cc2ccc(Cl)cc2)[C@]1(O)Cn1cncn1`: the MIC (in test [1]; with Colletotrichum lagenaria; in the test on Alternaria mali; against Fusarium fujikuroi; against Botrytis cinerea; against Cercospora beticola) was over 100 µg/mL in each case. The MIC against Bipolaris oryzae is over 100 µg/mL; against Monilinia fructicola it was over 100 µg/mL; against Rhizoctonia solani, over 100 µg/mL; in the test on Sclerotinia sclerotiorum it was over 100 µg/mL; in the test on Pyricularia oryzae, 100 µg/mL (≈ 287 µM); in [2], over 100 µg/mL. For the same compound, the Activity in the test with Cucumis sativus was 104%; in the test on Triticum aestivum, 115%.

For `CC(C)C[C@@H]1CC[C@H](Cc2ccc(Cl)cc2)[C@@]1(O)Cn1cncn1`, the MIC was 3.1 µg/mL (≈ 8.91 µM) in [1]; 100 µg/mL (≈ 287 µM) in the test on Colletotrichum lagenaria; over 100 µg/mL with Alternaria mali; 3.1 µg/mL (≈ 8.91 µM) against Fusarium fujikuroi; 1.6 µg/mL (≈ 4.6 µM) with Botrytis cinerea; over 100 µg/mL with Cercospora beticola. Further, the MIC was 50 µg/mL (≈ 144 µM) in the test on Bipolaris oryzae; 3.1 µg/mL (≈ 8.91 µM) against Monilinia fructicola; over 100 µg/mL with Rhizoctonia solani; 3.1 µg/mL (≈ 8.91 µM) against Sclerotinia sclerotiorum; 6.3 µg/mL (≈ 18.1 µM) with Pyricularia oryzae; over 100 µg/mL in test [2]. Also, the Activity is 109% in the test with Cucumis sativus and 112% in the test with Triticum aestivum.
